According to publication PMC7411652 (Sensors (Basel, Switzerland), 2020):
Where two headings read alike, the source gives them in different places.

What was measured:
CYP1A2 Supersomes = system: CYP1A2 Supersomes; set-up: method as in PMID 19359406; conditions: insect cell-derived microsomes, Corning-Gentest, 10 min incubation with microsomal enzyme; read-out: IC50 for inhibition of CYP1A2 Supersomes; cited from earlier work
CYP1A1 Supersomes = conditions: read-out: IC50 for inhibition of CYP1A1 Supersomes; insect cell-derived microsomes, Corning-Gentest; cited from earlier work
CYP1A1 enzyme = target: T1, CYP1A1 enzyme (Homo sapiens, UniProt P04798); experiment: Live-cell IC50 determination, CYP1A1 expressed in yeast cells, 7-ethoxyresorufin (7-ER) substrate; type: cell-based; conditions: 1 × 10^7 cells, 10 min incubation
T1 construct: expressed in transfected cells; host or cells: Saccharomyces cerevisiae W303-1A derived strains yRD+ (+CPR) and yRD-::Bax (-CPR)
T1 sequence (P04798 1-512): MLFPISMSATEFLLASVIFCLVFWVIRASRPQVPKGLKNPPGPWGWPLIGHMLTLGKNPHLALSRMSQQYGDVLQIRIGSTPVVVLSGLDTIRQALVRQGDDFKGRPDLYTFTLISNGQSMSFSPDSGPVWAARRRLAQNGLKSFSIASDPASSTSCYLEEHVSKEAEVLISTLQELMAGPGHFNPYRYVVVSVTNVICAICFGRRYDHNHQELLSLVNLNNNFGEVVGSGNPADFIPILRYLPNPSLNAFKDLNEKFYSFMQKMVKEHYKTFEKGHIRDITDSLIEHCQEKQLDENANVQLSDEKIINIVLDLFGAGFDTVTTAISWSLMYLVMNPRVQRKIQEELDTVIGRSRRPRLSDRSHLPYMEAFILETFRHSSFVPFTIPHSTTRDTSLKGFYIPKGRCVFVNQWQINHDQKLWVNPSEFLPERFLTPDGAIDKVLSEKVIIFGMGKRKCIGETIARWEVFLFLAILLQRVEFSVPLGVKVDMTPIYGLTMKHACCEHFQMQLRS
Protocol: The IC50 values were calculated using the GraphPad Prism software.

SMILES | IC50 (CYP1A2 Supersomes) [µM] | IC50 (CYP1A1 Supersomes) [µM] | IC50 (CYP1A1 enzyme; live yeast strain yRD+ (+CPR), read-out: IC50 for inhibition of CYP1A1 in yRD+ cells) [µM] | IC50 (CYP1A1 enzyme; live yeast strain yRD−:: Bax (–CPR), read-out: IC50 for inhibition of CYP1A1 in yRD- cells) [µM]
Cc1nc2c([nH]1)c(=O)n(C)c(=O)n2Cc1ccco1 [Furafylline] | 6.1 | – | – | –
O=c1cc(-c2ccccc2)oc2c1ccc1ccccc12 [ANF, Alpha-naphthoflavone] | – | 0.018 | 0.0208 | 0.0213
